Experimental data as given in patent US10582715B2, “Powder flavour composition” (Givaudan S.A., priority 2012, dated 2020).

Tests used:
[1] = Test in 3 in 1 Coffee beverage, evaluated by expert tasters; conditions: sucrose 13.2%, creamer 2.1% fat, compound at 1 ppm, base: coffee, sweet, mild dairy
Protocol: In a 3 in 1 Coffee beverage from Nestle (market product) sweetened with sucrose 13.2% and containing creamer (2.1% fat) C18:2-gaba was added.
Samples were evaluated by expert tasters. Tasters were asked to describe the samples focusing on authentic taste, mouthfeel, fullness, salivation, sweetness, juiciness, richness, long lastingness and fattiness.
Base is 3-in-1 Coffee Beverage (Market Product) Sweetened with Sucrose and Containing Creamer with Fat
Base: coffee, sweet, mild dairy

[2] = Tasting of snack product (fried potato base, 35% fat, cheese seasoning) with added compound
Source text: A snack product consisting of a fried potato base, containing 35% fat and flavored with cheese seasoning containing salt, MSG, dairy, organic acids, sugars, and a flavour formulation.

[3] = Tasting of air expanded base (3% fat, cheese seasoning) with added compound
Source text: An air expanded base (Rice, wheat, Tapioca, potato, salt, sugar, modified starch), containing 3% fat and flavored with cheese seasoning containing salt, MSG, dairy, organic acids, sugars and flavor.

[4] = Test on orange flavoured Tang powdered soft drink, evaluated by expert tasters
Protocol: In an orange flavoured Tang powdered soft drink (market product) sweetened with sucrose plus high intensity sweetener and containing citric acid, C18:2-gaba and C18:2-pro were tested.
All samples were evaluated by expert tasters. Tasters were asked to describe the samples focusing on authentic taste, mouthfeel & body, enhancement, richness, juiciness, long lastingness, salivation, sweetness, masking off notes of high intensity sweetener
Base is Orange Flavoured Tang
Base: sweet, orange, licorice, and lingering high intensity sweetener offnotes, bitter, thin

[5] = Mango flavoured still beverage containing different levels of juice, evaluated by expert tasters
Protocol: In a Mango flavoured still beverage, sweetened with 8% sucrose and containing 0.1% citric acid and 1%, 4% and 6% clear mango juice flavoured with a proprietary Mango flavour @ 0.05% , C18:2-gaba and C18:2-Pro were added, as such (separate) and in combination.
All samples were evaluated by expert tasters. Tasters were asked to describe the samples focusing on authentic taste, juicy mouthfeel, enhancement, richness, juiciness, long lastingness, salivation, sweetness.
In a Mango flavoured still beverage, sweetened with 8% sucrose & containing 0.1% citric acid and 1% clear mango juice flavoured with proprietary Mango flavour @ 0.05%, C18:2-gaba and C18:2-Pro were added, as such (separate) and in combination.
Base is water, 8% sucrose, 0.1% citric acid, 1% clear mango juice (very low juice %), flavoured with Mango flavor, dosed at 0.05%
Base: sweet, fruity, mango, thin
In a Mango flavoured still beverage, sweetened with 8% sucrose & containing 0.1% citric acid and 4% clear mango juice flavoured with Mango flavour @ 0.05% , C18:2-gaba and C18:2-Pro were added, as such (separate) and in combination.
Base is water, 8% sucrose, 0.1% citric acid, 4% clear mango juice (30% reduced juice), flavoured with Mango flavor, dosed at 0.05%
Base: sweet, fruity, mango, some low mouthfeel
In a Mango-flavoured still beverage, sweetened with 8% sucrose & containing 0.1% citric acid and 6% clear mango juice flavoured with Mango flavour @ 0.05%, C18:2-gaba and C18:2-Pro were added, as such (separate) and in combination.
Base is water, 8% sucrose, 0.1% citric acid, 6% clear mango juice (full juice), flavoured with Mango flavor, dosed at 0.05%.
Base: Sweet, fruity mango, full mouthfeel

Structure (SMILES): CCCCC/C=C\C/C=C\CCCCCCCC(=O)NCCCC(=O)O [C18:2-gaba]
- taste description by expert tasters [1]: very nice mouthfeel effect, creamy as if coffee creamer is added, more sweet
- tasting results ([2]; compound at 0.5 ppm): increased dairy, cheesy
- tasting results ([2]; compound at 1 ppm): Fatty full, cheesy, cheese crust, long lasting
- tasting results ([3]; compound at 0.5 ppm): Increased dairy, cheese
- tasting results ([3]; compound at 1 ppm): Fatty full, cheesy, cheese crust, long lasting, cover base
- masking off notes of high intensity sweetener ([4]; compound at 0.5 ppm): the off-notes of the high intensity sweetener were suppressed
- taste description by expert tasters ([4]; compound at 0.5 ppm): enhances sweet juicy orange notes, enhanced mouthfeel
- taste description by expert tasters ([5]; 1% clear mango juice, compound at 1 ppm): fatty skin-like, very juicy, authentic mango, much more mouthfeel, long lasting mango taste, mouthfeel is close to the full juice product
- taste description by expert tasters ([5]; 4% clear mango juice, compound at 1 ppm): fatty skin-like, very juicy, authentic mango, long lasting mango taste, more mouthfeel than the full juice product
- taste description by expert tasters ([5]; 6% clear mango juice (full juice), compound at 1 ppm): fatty skin-like, very thick juicy, authentic mango, long lasting mango taste, rich

Structure (SMILES): CCCCC/C=C\C/C=C\CCCCCCCC(=O)N1CCC[C@H]1C(=O)O [C18:2-Pro]
- masking off notes of high intensity sweetener ([4]; compound at 1 ppm): the off-notes of the high intensity sweetener were suppressed
- taste description by expert tasters ([4]; compound at 1 ppm): very fresh, enhances sweet juicy orange notes, characteristic of authentic fresh orange fruit
- taste description by expert tasters ([5]; 1% clear mango juice, compound at 0.5 ppm): more sweet, sugar-like, very juicy and long lasting sweet, salivating
- taste description by expert tasters ([5]; 4% clear mango juice, compound at 0.5 ppm): more sweet, sugar-like, very juicy and long lasting sweet, salivating
- taste description by expert tasters ([5]; 6% clear mango juice (full juice), compound at 0.5 ppm): more sweet, sugar-like, very juicy and long lasting sweet, salivating, syrupy

Structure (SMILES): CCCCCCCC/C=C\CCCCCCCC(=O)N[C@@H](CCSC)C(=O)O [C18:1 met]
- tasting results ([2]; compound at 0.25 ppm): Salty, aged cheese, succulent
- tasting results ([2]; compound at 0.5 ppm): Increased cheese, creamy, salty and succulent

Structure (SMILES): CCCCCCCC/C=C\CCCCCCCC(=O)NC1(C(=O)O)CC1 [C18:1-ACCA, N-oleoyl 1-amino-cyclopropyl carboxylic acid]
- tasting results ([2]; compound at 0.5 ppm): Increased salty
- tasting results ([2]; compound at 1 ppm): Increased Umami, salty
- tasting results ([3]; compound at 0.5 ppm): Increased salty
- tasting results ([3]; compound at 1 ppm): Increased Umami, salty
